Data published in US4148795A, “Dithiocarbamate ester bactericides and fungicides” (American Cyanamid Company, priority 1976, dated 1979).
Several values for one entry are separate records, joined by “and”; a condition that tells them apart may be missing. Identical values can stand only once. Like-named read-outs stand apart in the source and are kept apart here.

Key:
[1] = system: Stemphylium sarcinaeforme; test: Agar dilution plate; format: cell-based; conditions: Ss; 100 ppm, 72 hours at 23° C
Procedure: (§1) Test compounds were incorporated in a Sabouraud's dextrose agar in an amount sufficient to provide the active ingredient in a concentration of about 100 ppm. A twenty-ml. sample of the agar mixture is placed in a petri dish and permitted to solidify. An agar sample is inoculated with the test organism set forth below and then covered and incubated for a period of about 72 hours at 23° C. After incubation, growth observations are made. The test results are recorded and the test is repeated twice for the purpose of comparison.
(§2) The data obtained with a variety of test organisms is shown in the table below, and ratings are shown as 0 or 5. O indicates no control, 5 indicates 100% effectiveness of the test compound against the specified organism.
Ss= Stemphylium sarcinaeforme

Xanthomonas vesicatoria = format: cell-based; conditions: 100 ppm; subcultures 72 hours at 37° C; further: key: 0: No Effect; 9: Kill of Bacteria; 5: Stasis, but not Kill of all Bacteria
Piricularia oryzae = format: in vivo; parameters: scale not given here; conditions: Rice Blast, five days
[2] = system: Colletotrichum lagenarium; conditions: in vivo; further: key: 5: clean, no disease; 4: trace of disease; 3: slight disease; 2: moderate disease; 1: severe disease; 0: like controls
Pseudomonas solaracaerum = format: cell-based; conditions: 100 ppm, 72 hours at 23° C
Venturia inaequalis = conditions: in vivo; further: key: 5: clean, no disease; 4: trace of disease; 3: slight disease; 2: moderate disease; 1: severe disease; 0: like controls
Pythium de Baryanum = test: Agar dilution plate; format: cell-based; conditions: Pd; 100 ppm, 72 hours at 23° C
Procedure: as §1, §2

Fusarium lycopersici = test: Agar dilution plate; format: cell-based; conditions: Fl; 100 ppm, 72 hours at 23° C
Procedure: as §1, §2

Rhizoctonia solani = test: Agar dilution plate; format: cell-based; conditions: Rs; 100 ppm, 72 hours at 23° C
Procedure: as §1, §2

Aspergillus niger [3] = test: Agar dilution plate; format: cell-based; conditions: An; 100 ppm, 72 hours at 23° C
Procedure: as §1, §2

Monilinia fructicola [4] = test: Agar dilution plate; format: cell-based; conditions: Mf; 100 ppm, 72 hours at 23° C
Procedure: as §1, §2

[5] = system: Collectotrichum lagenarium; test: Agar dilution plate; format: cell-based; conditions: Cl; 100 ppm, 72 hours at 23° C
Procedure: as §1, §2
Cl= Collectotrichum lagenarium

Staphylococcus aureus = format: cell-based; conditions: 100 ppm; subcultures 72 hours at 37° C; further: key: 0: No Effect; 9: Kill of Bacteria; 5: Stasis, but not Kill of all Bacteria
Phytophthora infestans = format: in vivo; parameters: scale not given here; conditions: Tomato Late Blight, five days
Verticillium albo-atrum = test: Agar dilution plate; format: cell-based; conditions: Va; 100 ppm, 72 hours at 23° C
Procedure: as §1, §2
Va= Verticillium albo-atrum

Aerobacter aerogenes = format: cell-based; conditions: 100 ppm; subcultures 72 hours at 37° C; further: key: 0: No Effect; 9: Kill of Bacteria; 5: Stasis, but not Kill of all Bacteria
[6] = system: Stemphylium sarcinaeforme; test: Spore germination inhibition; format: cell-based; conditions: Stemphylium sarciniforme; for inhibition at 100 ppm: 24 h, read-out: % Inhibition of Spore Germination; for inhibition at 1 ppm / inhibition at 10 ppm: 24 hours
Procedure, shortened: (§3)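 Test compounds were suspended in water at 100, 10 or 1 ppm and inoculated with spore suspensions from 7-day (A. niger) or 14-day potato-dextrose agar cultures. Vials were tumbled for 24 hours and then examined for inhibition of mycelial growth.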

Aspergillus niger [7] = test: Spore germination inhibition; format: cell-based; conditions: 24 hours
Procedure, shortened: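 Test compound is suspended in water at 100, 10 or 1 ppm. and dispensed into one dram "opticlear" vials. Each vial receives one drop of a spore suspension taken from seven-day Aspergillus niger cultures grown on potato-dextrose agar. Capped vials rotate on a tumbler for 24 hours, then are inspected for inhibition of mycelial growth.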

Monilinia fructicola [8] = test: Spore germination inhibition; format: cell-based; conditions: for inhibition at 1 ppm / inhibition at 10 ppm: 24 hours; for inhibition at 100 ppm: 24 h, read-out: % Inhibition of Spore Germination
Procedure, shortened: as §3

SMILES	Agar Dilution Plate rating [1]	Antibacterial Activity rating (Xanthomonas vesicatoria)	disease control index [2]	Agar Dilution Plate rating (Pseudomonas solaracaerum)	disease control index (Venturia inaequalis)	Agar Dilution Plate rating (Pythium de Baryanum)	Agar Dilution Plate rating (Fusarium lycopersici)	Agar Dilution Plate rating (Rhizoctonia solani)	Agar Dilution Plate rating (Aspergillus niger [3])	Agar Dilution Plate rating (Monilinia fructicola [4])	Agar Dilution Plate rating [5]	Antibacterial Activity rating (Staphylococcus aureus)	Agar Dilution Plate rating (Verticillium albo-atrum)	Antibacterial Activity rating (Aerobacter aerogenes)	disease control index (Piricularia oryzae; 150 ppm)	disease control index (Piricularia oryzae; 300 ppm)	disease control index (Piricularia oryzae; 600 ppm)	disease control index (Piricularia oryzae; 1200 ppm)	disease control index (Phytophthora infestans; 150 ppm)	disease control index (Phytophthora infestans; 300 ppm)	other results
CC(C(SC(=S)N(C)C)c1ccccc1)[N+](=O)[O-] (stereo not drawn) [Example 18, α-(1-Nitroethyl)benzyl Dimethyldithiocarbamate]	5 (100% effectiveness of the test compound against the specified organism)	0	5	0	5	5 (100% effectiveness of the test compound against the specified organism)	5 (100% effectiveness of the test compound against the specified organism)	5 (100% effectiveness of the test compound against the specified organism)	0	5 (100% effectiveness of the test compound against the specified organism)	5 (100% effectiveness of the test compound against the specified organism)	5	5 (100% effectiveness of the test compound against the specified organism)	0							disease control index (Piricularia oryzae; at 100 ppm): 5; disease control index (Piricularia oryzae; at 500 ppm): 5; disease control index (Phytophthora infestans; at 100 ppm): 5; disease control index (Phytophthora infestans; at 500 ppm): 5
CN(C)C(=S)SC(C[N+](=O)[O-])c1ccc(Br)cc1 (stereo not drawn) [Example 30, p-Bromo-α-(nitromethyl)benzyl Dimethyldithiocarbamate]	0	0		0	5	5 (100% effectiveness of the test compound against the specified organism)	0	5 (100% effectiveness of the test compound against the specified organism)	0	5 (100% effectiveness of the test compound against the specified organism)	5 (100% effectiveness of the test compound against the specified organism)	5	0	0	5	5	5	5	2	3	disease control index (Phytophthora infestans; 600 ppm): 3; disease control index (Phytophthora infestans; 1200 ppm): 4; inhibition at 100 ppm [6]: 100%; inhibition at 1 ppm [6]: 0%; inhibition at 10 ppm [6]: 100%; inhibition at 1 ppm (Aspergillus niger [7]): 0%; inhibition at 10 ppm (Aspergillus niger [7]): 100%; inhibition at 100 ppm (Aspergillus niger [7]): 100%; inhibition at 1 ppm (Monilinia fructicola [8]): 100%; inhibition at 10 ppm (Monilinia fructicola [8]): 100%; inhibition at 100 ppm (Monilinia fructicola [8]): 100%
CN(C)C(=S)SCC(CSC(=S)N(C)C)[N+](=O)[O-] [Example 1, 2-Nitrotrimethylene Dimethyldithiocarbamate]	5 (100% effectiveness of the test compound against the specified organism)	0		0	3 and 0	0	0	0	0	5 (100% effectiveness of the test compound against the specified organism)	5 (100% effectiveness of the test compound against the specified organism)	5	0	0	2	2	3	3	3	4	disease control index (Phytophthora infestans; 600 ppm): 4; disease control index (Phytophthora infestans; 1200 ppm): 5; inhibition at 100 ppm [6]: 100%; inhibition at 1 ppm [6]: 100%; inhibition at 10 ppm [6]: 100%; inhibition at 1 ppm (Aspergillus niger [7]): 100%; inhibition at 10 ppm (Aspergillus niger [7]): 100%; inhibition at 100 ppm (Aspergillus niger [7]): 100%; inhibition at 1 ppm (Monilinia fructicola [8]): 100%; inhibition at 10 ppm (Monilinia fructicola [8]): 100%; inhibition at 100 ppm (Monilinia fructicola [8]): 100%
CN(C)C(=S)SC(c1ccc(Cl)cc1Cl)C(C(c1ccc(Cl)cc1Cl)N(C)C)[N+](=O)[O-] (stereo not drawn) [Example 8, 1,3-Bis(2,4-dichlorophenyl)-3-dimethylamino-2-nitropropyl Dimethyldithiocarbamate]	0	0	5	0	5 and 4	0	0	0	0	5 (100% effectiveness of the test compound against the specified organism)	0	5	5 (100% effectiveness of the test compound against the specified organism)	0							disease control index (Piricularia oryzae; at 100 ppm): 5; disease control index (Piricularia oryzae; at 500 ppm): 5; disease control index (Phytophthora infestans; at 100 ppm): 5; disease control index (Phytophthora infestans; at 500 ppm): 5
COc1ccc(C(C[N+](=O)[O-])SC(=S)N(C)C)cc1OC (stereo not drawn) [Example 25, 3,4-Dimethoxy-α-(nitromethyl)benzyl Dimethyldithiocarbamate]	5 (100% effectiveness of the test compound against the specified organism)	5		0	5	5 (100% effectiveness of the test compound against the specified organism)	0	0	0	5 (100% effectiveness of the test compound against the specified organism)	5 (100% effectiveness of the test compound against the specified organism)	5	5 (100% effectiveness of the test compound against the specified organism)	5	3	4	5	4	5	5	disease control index (Phytophthora infestans; 600 ppm): 5; disease control index (Phytophthora infestans; 1200 ppm): 5; inhibition at 100 ppm [6]: 100%; inhibition at 1 ppm [6]: 100%; inhibition at 10 ppm [6]: 100%; inhibition at 1 ppm (Aspergillus niger [7]): 0%; inhibition at 10 ppm (Aspergillus niger [7]): 100%; inhibition at 100 ppm (Aspergillus niger [7]): 100%; inhibition at 1 ppm (Monilinia fructicola [8]): 0%; inhibition at 10 ppm (Monilinia fructicola [8]): 100%; inhibition at 100 ppm (Monilinia fructicola [8]): 100%
O=[N+]([O-])CC(SC(=S)N1CCCC1)c1ccccc1 (stereo not drawn) [Example 15, α-(Nitromethyl)benzyl 1-pyrrolidinecarbodithioate]			5												4	4					
O=[N+]([O-])CC(SC(=S)N1CCCCC1)c1ccccc1 (stereo not drawn) [Example 16, α-(Nitromethyl)benzyl 1-Piperidinecarbodithioate]			5		5										5	5					
O=[N+]([O-])C(CSC(=S)N1CCCCC1)CSC(=S)N1CCCCC1 [Example 3, 2-Nitrotrimethylene 1-Piperidinecarbodithioate]			4												5	5			4	4	
